Literature values in US10988420B2, “Nanoparticles of layered double hydroxides containing non-polar compounds of plant origin, and method for the separation and selective release of said compounds” (UNIVERSIDAD DE GUADALAJARA, priority 2015, dated 2021).

Details: lycopene not encapsulated; prior art (Meléndez-Martinez 2004)

For CC(C)=CCC/C(C)=C/C=C/C(C)=C/C=C/C(C)=C/C=C/C=C(C)/C=C/C=C(C)/C=C/C=C(\C)CCC=C(C)C [lycopene], the “temperature at which lycopene is decomposed” value is given as 100-150 °C.
